# Measurements taken from patent publication US20260071220A1, “CONJUGATE OF NUCLEOTIDE ANALOG-CONTAINING DOUBLE-STRANDED RNAI ANALOG” (BaseCure Therapeutics LLC, priority 2022, published 2026).
# In the oligonucleotide strings, read from the 5' end, every base follows the letter of its sugar. An asterisk marks phosphorothioate; unmarked linkages are phosphodiester. Other units and linkages are bracketed, terminal groups are in braces. A string of capitals states the bases alone. {D01} = GalNAc ligand D01, attached to sense strand by a phosphodiester bond; m = 2'-O-methyl; f = 2'-fluoro
# How the values were obtained:
# AGT mRNA [1] = assay: Free uptake experiment of PHH cells (AGT mRNA by qPCR); format: cell-based, human; conditions: 48 h
# Description: A sample to be tested was incubated with primary human hepatocytes. The downregulation degree of AGT mRNA by the sample to be tested was evaluated.
# Primary human hepatocytes (PHH), RNeasy® 96 Kit (12) (QIAGEN-74182), FastKing RT Kit (With gDNase) (Tiangen-KR116-02), TaqMan Gene Expression Assay (GAPDH, Thermo, Assay ID-Hs02786624_g1), TaqMan Gene Expression Assay (AGT, Thermo, Assay ID-Hs01586213_m1).
# A conjugate of the present invention was diluted with a PBS solution until the obtained concentration was 10 times the concentration to be tested. 10 uL of siRNA was transferred to a 96-well plate. PHH cells were thawed and seeded to the 96-well plate, and the final cell density was 5.4×10^5 cells/well. The conjugate of the present invention was tested for 10 concentration points, and the highest concentration was 500 nM, with 4-fold dilution.
# The cells were incubated for 48 h under the conditions of 37° C. and 5% CO2, and the state of the cells was observed using a microscope.
# After the incubation was completed, the cells were lysed, all of RNA was extracted from the obtained lysate using RNeasy® 96 Kit (QIAGEN-74182), and underwent reverse transcription using FastKing RT Kit (With gDNase) (Tiangen-KR116-02) to obtain cDNA. AGT cDNA was detected by qPCR.
# AGT mRNA [2] = assay: Compound activity experiment in Huh7 cell line (transfection, AGT mRNA by qPCR); format: cell-based, human; conditions: Huh7, RNAiMAX transfection, 24 h
# Description: 1. Objective: this study aims to evaluate the inhibitory effect of the conjugate described in this patent on a target gene using a Huh7 cell line. The inhibitory activity of the compound on target gene AGT is evaluated based on the EC50 value of the compound as an index.
# Huh7 cells were provided by Shanghai WuXi AppTec New Drug Development Co., Ltd. Hub7 cells were cultured in MEM medium containing 10% fetal bovine serum and 1% penicillin streptomycin.
# 1) On Day 1, a mixed solution of an RNAiMAX transfection reagent and Opti-MEM was prepared as needed in a ratio of RNAiMAX transfection reagent:Opti-MEM=1.5:48.5, and incubated for 15 min at room temperature;
# 2) For cells in each well, a certain amount of diluted compound was taken and added into an equal amount of RNAiMAX Optim-MEM medium to be mixed well, and then incubated for 15 min;
# 3) Huh7 cells were taken and washed with DPBS, digested with trypsin, and the density of the cells was adjusted to an appropriate density;
# 4) The cells were seeded into a 96-well plate at a density of 2,0000 cells/well while adding a mixture of 20 μL Opti-MEM RNAiMax and the compound into the cell culture plate, and the volume of the final medium for each well was 120 μL.
# 5) The cells were incubated for 24 h in an incubator under the conditions of 5% CO2 and 37° C. […]
# The cDNA of the target gene was detected by qPCR. qPCR was carried out in a 384-well plate using GAPDH as an internal reference gene. […]
# This method requires the introduction of the internal reference gene GAPDH, as the internal reference gene is expressed in all the cells and its product is necessary for maintaining cell survival; and the expression level or copy number of the genome in cells remains constant and is less affected by environmental factors. After qRT-PCR, the CT value of the internal reference will also be recorded, called Ct (GAPDH), and the CT value of the sample is called Ct (sample).
# [3] = AGT mRNA, read-out: Absolute EC50
substance,measurement,setting,value
"Conjugate 2: Double-stranded RNAi analog against AGT, D01 GalNAc ligand on sense strand; sense SEQ ID NO: 6, antisense SEQ ID NO: 2 containing Z (sense mA*mU*fCfCmAfCfAfAmUmGmAmGmAfGmUmAmCmA-{D01}; antisense CUCACAUGUACNCUCAUUGUGGAUGACGA; antisense: chemistry not given here; antisense strand modified, includes nucleotide analog Z, further chemistry not fully specified)",Emax (remaining AGT mRNA),AGT mRNA [1],5%
same,EC50,AGT mRNA [1]; [3],0.197 nM
same,Log (concentration),AGT mRNA [1]; log of the absolute EC50 in nM,−0.705
same,Emax (remaining AGT mRNA),AGT mRNA [2],5%
same,EC50,AGT mRNA [2]; [3],0.00592 nM
same,Log (concentration),AGT mRNA [2]; log of the absolute EC50 (matches nM),−2.228
